The data set has as its system GH3-TRE-Luc cell line. To be noted: read-out: AC50 (uM) modified / 1000, viability, 1 nM T3 present, 24 h.

Structures are written as SMILES. Counter-ions that a name gives are not always drawn. Like-named read-outs stand apart in the source and are kept apart here.

For `CN(C)c1ccc2nc3ccc(=[N+](C)C)cc-3sc2c1` [Methylene Blue trihydrate], under “Tox21_110001=Tox21_202525”, the CC50 was 27.1 µM.

As for `CN(C)c1ccc2nc3ccc(=[N+](C)C)cc-3sc2c1` [Methylene blue], the CC50 is, setting by setting: (Tox21_110001=Tox21_112497) 21.1 µM; (Tox21_110001=Tox21_302087) 45.4 µM.

Turning to `CCCCCCCC[N+](C)(CCCCCCCC)CCCCCCCC` [Methyltrioctylammonium chloride], the CC50 (Tox21_110001=Tox21_302198) was found to be 5.04 µM.

Regarding `CN(C)c1ccc(C(=O)c2ccc(N(C)C)cc2)cc1` [Michler's ketone], the CC50 (Tox21_110001=Tox21_202416) is 2.74 µM.

Consider `CC#C[C@]1(O)CC[C@H]2[C@@H]3CCC4=CC(=O)CCC4=C3[C@@H](c3ccc(N(C)C)cc3)C[C@@]21C` [Mifepristone], for which the CC50 reads like this: (Tox21_110001=Tox21_110952) 9.81 µM; (Tox21_110001=Tox21_301841) 36.7 µM.

Turning to `NCCNc1cccc2ccccc12` [N-(1-Naphthyl)ethylenediamine dihydrochloride], the CC50 reads like this: (Tox21_110001=Tox21_111184) 10.9 µM; (Tox21_110001=Tox21_201928) 37 µM; (Tox21_110001=Tox21_302783) 26 µM.

With `CC(C)Nc1ccc(Nc2ccccc2)cc1` [N-Isopropyl-N'-phenyl-p-phenylenediamine], the CC50 is, setting by setting: (Tox21_110001=Tox21_111169) 13.5 µM; (Tox21_110001=Tox21_201424) 36.2 µM; (Tox21_110001=Tox21_303202) 33.4 µM.

With `Nc1ccc(Nc2ccccc2)cc1` [N-Phenyl-1,4-benzenediamine hydrochloride], the CC50 (Tox21_110001=Tox21_200117) was determined as 57.3 µM.

As for `Nc1ccc(Nc2ccccc2)cc1` [N-Phenyl-1,4-benzenediamine], the CC50 is, setting by setting: (Tox21_110001=Tox21_202144) 42.9 µM; (Tox21_110001=Tox21_300027) 22.6 µM.

On to `CCc1nn(CCCN2CCN(c3cccc(Cl)c3)CC2)c(=O)n1CCOc1ccccc1` [Nefazodone hydrochloride], for which the CC50 is 9.43 µM (Tox21_110001=Tox21_111735) and 23.6 µM (Tox21_110001=Tox21_113574).

In the case of `Cc1c(O)cccc1C(=O)N[C@@H](CSc1ccccc1)[C@H](O)CN1C[C@H]2CCCC[C@H]2C[C@H]1C(=O)NC(C)(C)C` [Nelfinavir mesylate], the CC50 reads like this: (Tox21_110001=Tox21_111021) 3.68 µM; (Tox21_110001=Tox21_200921) 1.83 µM.

In the case of `COC(=O)C1=C(C)NC(C)=C(C(=O)OCCN(C)Cc2ccccc2)C1c1cccc([N+](=O)[O-])c1` (centres unmarked) [Nicardipine], the CC50 reads like this: (Tox21_110001=Tox21_110211) 7.48 µM; (Tox21_110001=Tox21_301832) 22.2 µM.

Take `N=C(N)c1ccc(OCCCCCOc2ccc(C(=N)N)cc2)cc1` [Pentamidine isethionate]: the CC50 stood at 23.4 µM (Tox21_110001=Tox21_110742), 63.5 µM (Tox21_110001=Tox21_201722) and 41 µM (Tox21_110001=Tox21_300312).

Turning to `Nc1ccc(/N=N/c2ccccc2)c(N)n1` [Phenazopyridine hydrochloride], the CC50 is, setting by setting: (Tox21_110001=Tox21_110829) 18.5 µM; (Tox21_110001=Tox21_202153) 45.2 µM; (Tox21_110001=Tox21_302738) 44.8 µM.

In the case of `O=S1(=O)OC(c2ccc(O)cc2)(c2ccc(O)cc2)c2ccccc21` [Phenol red], the CC50 (Tox21_110001=Tox21_303570) was determined as 79.8 µM.

As for `O=C1OC(c2ccc(O)cc2)(c2ccc(O)cc2)c2ccccc21` [Phenolphthalein], the CC50 by setting is: (Tox21_110001=Tox21_110838) 16.8 µM; (Tox21_110001=Tox21_202219) 25.4 µM; (Tox21_110001=Tox21_300282) 49.8 µM.

In the case of `CN(C)CCOc1ccccc1Cc1ccccc1` [Phentoloxamine PAS], the CC50 (Tox21_110001=Tox21_113232) turned out to be 25.5 µM.

Take `CN(C)CCOc1ccccc1Cc1ccccc1` [Phenyltoloxamine citrate]: the CC50 (Tox21_110001=Tox21_110862) worked out at 9.16 µM.

Regarding `COc1cc([C@@H]2c3cc4c(cc3[C@H](O)[C@H]3COC(=O)[C@H]23)OCO4)cc(OC)c1OC` [Podofilox], the CC50 (Tox21_110001=Tox21_202922) was determined as 0.0227 µM.

For `CC(CN1c2ccccc2Sc2ccccc21)N(C)C` (centres unmarked) [Promethazine], the CC50 (Tox21_110001=Tox21_110227) amounted to 17.9 µM.

`CC(C)NCC(O)COc1cccc2ccccc12` (centres unmarked) [Propranolol hydrochloride]: the CC50 (Tox21_110001=Tox21_201886) is 73 µM and the CC50 (Tox21_110001=Tox21_302905) was determined as 30.5 µM.

In the case of `CCCOC(=O)c1cc(O)c(O)c(O)c1` [Propyl gallate], the CC50 came out at 32.9 µM (Tox21_110001=Tox21_113531), 61.7 µM (Tox21_110001=Tox21_202286) and 72.8 µM (Tox21_110001=Tox21_300060).

For `COc1ccc(CN(CCN(C)C)c2ccccn2)cc1` [Pyrilamine], under “Tox21_110001=Tox21_200978”, the CC50 stood at 39.2 µM.

For `CCc1nc(N)nc(N)c1-c1ccc(Cl)cc1` [Pyrimethamine], the CC50 reads like this: (Tox21_110001=Tox21_201834) more than 90 µM; (Tox21_110001=Tox21_300129) 42.7 µM.

On to `O=c1c(O)c(-c2ccc(O)c(O)c2)oc2cc(O)cc(O)c12` [Quercetin], for which the CC50 (Tox21_110001=Tox21_202308) was 40.5 µM and the CC50 (Tox21_110001=Tox21_300285) amounted to 77.2 µM.

On to `C=C[C@H]1C[N@@]2CC[C@H]1C[C@H]2[C@H](O)c1ccnc2ccc(OC)cc12` [Quinine hydrochloride dihydrate], for which, where the note is “Tox21_110001=Tox21_303565”, the CC50 amounted to 50.6 µM.

Take `C=C[C@H]1C[N@@]2CC[C@H]1C[C@H]2[C@H](O)c1ccnc2ccc(OC)cc12` [Quinine]: the CC50 (Tox21_110001=Tox21_112389) worked out at 42.9 µM.

For `O=C(c1ccc(OCCN2CCCCC2)cc1)c1c(-c2ccc(O)cc2)sc2cc(O)ccc12` [Raloxifene hydrochloride], the CC50 by setting is: (Tox21_110001=Tox21_110255) 5.6 µM; (Tox21_110001=Tox21_302369) 2.98 µM.

The record behind these values is paper PMC6792352, “Limited Chemical Structural Diversity Found to Modulate Thyroid Hormone Receptor in the Tox21 Chemical Library” (Environmental Health Perspectives, 2019).
